Measured values as given in article PMC12010006, “Subnanomolar MAS-related G protein-coupled receptor-X2/B2 antagonists with efficacy in human mast cells and disease models” (Signal Transduction and Targeted Therapy, 2025).

Tests used:
[1] = system: C3a-induced response; test: Surface expression of CD107a and CD63 (flow cytometry), LAD2 cells activated with C3a; format: cell-based, human; conditions: 30 nM; C3a 3 nM
Method: The granule-associated proteins CD107a and CD63 externalize in the process of degranulation. Their quantification by flow cytometry is a reliable marker of mast cell activation, which is often used for the diagnosis of allergies and anaphylaxis in mast cell activation tests.[49],[50] Thus, the expression of CD107a and CD63 on the cell surface was determined to confirm the effects of PSB-172656 on SP-induced MRGPRX2-mediated degranulation. […] In addition to MRPGRX2, LAD2 cells also express a GPCR that is specifically activated by the complement component C3a.[51] Both receptors can activate Gαi/o proteins to promote MC activation.[48],[52]
MC degranulation was also measured by determining the cell surface expression of CD107a (Lysosomal-Associated Membrane Protein-1, LAMP-1) and CD63 (LAMP-3) after agonist stimulation.[48] LAD2 cells were preincubated with PSB-172656 or vehicle control for 5 min at 37 °C, then activated with SP (0.3 μM) and or C3a (3 nM) for 5 min at 37 °C. After 5 min of incubation, cells were fixed with 500 µL of 4% fixation buffer (Biolegend, Catalog 420801) for 15 min at room temperature. […] Cell surface expression of CD107a and CD63 was measured from the zombie-yellow negative population by a BD LSR II flow cytometer (San Jose, CA, USA) and analyzed by FlowJo software version 10.7.2 (Tree Star Inc., Ashland, OR, USA).[48],[50]

[2] = Metabolic stability in human liver microsomes; format: in vitro ADME; conditions: human liver microsomes 0.25 mg/ml, compound 1 µM
[3] = target: T1, mouse MRGPRB2 (Mus musculus, UniProt Q3KNA1); test: Ca2+ assay, 1321N1 astrocytoma cells expressing MRGPRB2; format: cell-based
T1 construct: expressed in transfected cells; host or cells: 1321N1 astrocytoma cells; plasmid pLVX-IRES-MRGPRB2-mCherry (Addgene #213961)
T1 sequence (Q3KNA1 1-338): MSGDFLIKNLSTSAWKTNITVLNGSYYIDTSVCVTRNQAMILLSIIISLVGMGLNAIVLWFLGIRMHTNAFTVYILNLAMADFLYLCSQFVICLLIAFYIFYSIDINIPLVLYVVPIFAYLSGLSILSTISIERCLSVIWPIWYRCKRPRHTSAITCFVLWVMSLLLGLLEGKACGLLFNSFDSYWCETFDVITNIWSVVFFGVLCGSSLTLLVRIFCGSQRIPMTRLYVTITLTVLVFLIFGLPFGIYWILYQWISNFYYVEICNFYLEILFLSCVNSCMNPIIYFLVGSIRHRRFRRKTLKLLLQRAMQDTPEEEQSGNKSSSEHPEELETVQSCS
Method: Therefore, we investigated whether the new MRGPRX2 antagonists could also block MRGPRB2. To this end, we used recombinant 1321N1 astrocytoma cells that stably expressed MRGPRB2, employing Ca^2+ assays, and CST-14 as MRGPRX2/MRGPRB2 agonist (EC80 value of 2000 nM).[31]
For MRGPRB2, the pKi values of the compounds were determined using 1321N1 astrocytoma cells recombinantly expressing MRGPRB2 using Ca^2+ assays versus the MRGPRX2/MRGPRB2 agonist CST-14 (EC80 value, 2000 nM). For MRGPRX2, pKi values were determined using Ca^2+ assays performed in LN229 cells recombinantly overexpressing MRGPRX2 versus the agonist CST-14 (EC80 value, 800 nM). b Concentration-response curve of PSB-172656 in Ca^2+ assays using 1321N1 astrocytoma cells expressing MRGPRB2 versus CST-14 (EC80 value, 2000 nM), Ki value 0.302 ± 0.039 nM. Data are generated from 3 biological replicates, determined in duplicates. c A representative trace showing the effect of C48/80 (30 µg/mL) on a mouse tracheal ring in isometric force measurements using a wire-myograph system. d The contraction response of mouse trachea to C48/80 (30 µg/mL) was normalized to the contraction caused by methacholine (10 µM), a muscarinic receptors agonist. […]

- half-life at 1 µM ([2]; both sexes, human, liver microsomes, read-out: T1/2 (half-life)): 1.53 h
- microsomal CLint at 1 µM ([2]; both sexes, read-out: Clint (intrinsic clearance)): 15 µL/min/mg
- T1/2 (half-life) [2]: 1.54 h
- T1/2 (half-life) ([2]; listed as PSB-172656): > 1.5 h
- fold less potent at MRGPRB2 than at human MRGPRX2 ([3]; Ca2+ assays): 3 fold
- Ki ([3]; versus CST-14 (EC80 2000 nM)): 302 pM
Structure (SMILES): CCc1c(C(C)C)[nH]c2nc3cc(F)c(F)cc3n2c1=O [Compound 24, 3-ethyl-7,8-difluoro-2-isopropylbenzo[4,5]imidazo [1,2-a] pyrimidin-4(1H)-one]
- effect on C3a-induced expression of CD107a and CD63 [1]: did not affect
